US20250114312A1, “TREATMENT OF COPPER DISORDERS” (PhilERA New Zealand Ltd., priority 2021, published 2025)

Columns and labels:
Caco-2 barrier model = test: Permeability in Caco-2 barrier model; conditions: for Papp, B-A direction: compound alone
Experimental: (§1) Digoxin was used as marker to check for Pgp activity in the cultures. […] Samples were recovered from receptor compartments after 0, 15, 30, 45, 60, and 120 minutes, and further analyzed by liquid scintillation counting. Samples were also recovered a time 0 and 120 minutes from the donor compartments for mass balance evaluation. Each condition was performed in 3 replicated transwell filters in the presence of the Caco-2 barrier.

[1] = human, in vivo
[2] = in-life phase, albino and pigmented rats, 10 mg/kg oral
Pgp = Pgp (Homo sapiens, UniProt P08183); conditions: Caco-2
urinary copper excretion = conditions: in vivo
[3] = Permeability in Caco-2 barrier model; conditions: human, Caco-2, pH 7.4
Experimental: as §1

Pgp, sequence (P08183 whole entry): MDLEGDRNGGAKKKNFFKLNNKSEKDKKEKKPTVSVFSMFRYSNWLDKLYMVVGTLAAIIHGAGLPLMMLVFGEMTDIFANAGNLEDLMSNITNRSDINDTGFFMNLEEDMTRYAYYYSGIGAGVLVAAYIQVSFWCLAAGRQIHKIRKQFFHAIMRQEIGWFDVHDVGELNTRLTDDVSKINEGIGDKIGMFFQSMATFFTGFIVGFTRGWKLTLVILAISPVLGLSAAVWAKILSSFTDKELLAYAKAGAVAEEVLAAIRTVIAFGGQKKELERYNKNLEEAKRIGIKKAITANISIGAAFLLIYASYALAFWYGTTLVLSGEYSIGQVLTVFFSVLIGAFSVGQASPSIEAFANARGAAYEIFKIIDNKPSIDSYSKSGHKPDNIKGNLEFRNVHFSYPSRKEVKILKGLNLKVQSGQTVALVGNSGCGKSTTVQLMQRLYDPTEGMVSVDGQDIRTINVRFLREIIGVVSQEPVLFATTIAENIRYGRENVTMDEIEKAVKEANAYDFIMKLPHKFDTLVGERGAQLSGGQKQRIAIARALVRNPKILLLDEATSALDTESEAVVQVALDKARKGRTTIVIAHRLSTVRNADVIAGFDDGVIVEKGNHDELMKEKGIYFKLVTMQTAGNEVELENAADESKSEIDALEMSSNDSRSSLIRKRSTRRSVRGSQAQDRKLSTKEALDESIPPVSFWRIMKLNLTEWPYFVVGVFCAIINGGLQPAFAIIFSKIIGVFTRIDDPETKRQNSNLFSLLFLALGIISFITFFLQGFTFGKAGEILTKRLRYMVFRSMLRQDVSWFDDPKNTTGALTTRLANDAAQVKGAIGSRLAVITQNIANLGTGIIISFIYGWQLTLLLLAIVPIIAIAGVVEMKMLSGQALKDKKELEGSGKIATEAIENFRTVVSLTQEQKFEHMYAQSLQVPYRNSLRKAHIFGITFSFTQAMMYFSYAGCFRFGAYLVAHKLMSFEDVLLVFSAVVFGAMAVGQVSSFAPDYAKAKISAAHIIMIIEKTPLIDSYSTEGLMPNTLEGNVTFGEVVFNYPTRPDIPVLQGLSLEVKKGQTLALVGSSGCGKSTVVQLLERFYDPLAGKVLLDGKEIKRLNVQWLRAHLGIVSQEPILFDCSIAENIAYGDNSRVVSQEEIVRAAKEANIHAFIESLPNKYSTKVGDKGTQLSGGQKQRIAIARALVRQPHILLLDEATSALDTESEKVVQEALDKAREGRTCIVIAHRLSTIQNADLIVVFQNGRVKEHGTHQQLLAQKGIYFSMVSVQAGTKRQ

Lucifer yellow
Papp of barrier quality markers (Caco-2 barrier model; Caco-2): lower than 1×10^−6 cm/s

CC(=O)NCCNCCNCCNC(C)=O [DAT, N1,N10-diacetyltriethylenetetramine]
θ-VP,D/F/frM/frD Apparent volume for DAT (human, in vivo): 197 L
Median Tmax of DAT [1]: 5.0 to 6.0 h

NCCNCCNCCN.O=C(O)CCC(=O)O.O=C(O)CCC(=O)O
Animal observations attributable to administration [2]: No animal observations

NCCNCCNCCN.O=C(O)CCC(=O)O.O=C(O)CCC(=O)O [PX811019, triethylenetetramine disuccinate]
Pgp substrate (Pgp): would not be a Pgp substrate
DAT t½ Predicted (human, in vivo, po): 0.390 h
MAT t½ ([1]; po): 15.8239 h
Difference in urinary excretion of copper due to formulation (urinary copper excretion): no clear difference
Level of cupriuresis versus dose (urinary copper excretion; po): approximately the same at 435 and 1305 mg PX811019 and increased at the highest dose of 2175 mg
Papp, B-A direction (Caco-2 barrier model; disuccinate): No permeability was observed
Predicted absorption in humans (Caco-2 barrier model; estimated from in vitro Papp value): approximately 70%

C[C@H]1O[C@@H](O[C@H]2[C@@H](O)C[C@H](O[C@H]3[C@@H](O)C[C@H](O[C@H]4CC[C@@]5(C)[C@H](CC[C@@H]6[C@@H]5C[C@@H](O)[C@]5(C)[C@@H](C7=CC(=O)OC7)CC[C@]65O)C4)O[C@@H]3C)O[C@@H]2C)C[C@H](O)[C@@H]1O [Digoxin]
Papp A→B at 1 h, 0.02 mM [3]: 0.75 ×10⁻⁶ cm/s
Asymmetry Index (Caco-2 barrier model; B-A/A-B): 8.06
Papp, B-A direction (Caco-2 barrier model): 6.08 ×10⁻⁶ cm/s

NCCNCCNCCN [TETA, Triethylenetetramine, reference compound]
Increase of VT,T/F for every 100 mg difference from the 750 mg dose (human, in vivo): 6.37%
Inter-occasion variability of F (human, in vivo): 43.7 (17.3) [5.5] %
Inter-occasion variability of ka (human, in vivo): 69.4 (57.6) [16.3] %
Slope (SL) of copper excretion versus TETA concentration (in vivo): 41.8 (mg/L)^−1
θ-SL · ER0 Slope between TETA and Cu excretion rate (population mean): 24.3 (mg/L)^−1 · (μg/h)

CC(=O)NCCNCCNCCN [MAT, N1-acetyltriethylenetetramine]
θ-MTT Mean transit time for MAT formation (human, in vivo): 0.381 h
θ-VP,M/F/frM Apparent volume for MAT (human, in vivo): 426 L
